The nature of data set [1]: Relaxivity measurements (T1 and T2 relaxation times, Bruker minispec mq60/mq20). The format is physicochemical. Particulars: aqueous solution, 37° C. The protocol:
T1 and T2 relaxation times were measured at the STTARR Innovation Centre in Toronto, Canada using a Bruker minispec mq60, and at the Bruker Showroom in Milton, Canada using a Bruker minispec mq20. Measurements were carried out on a series of 6 aqueous dilutions between 0-5 mM.
The T1 and T2 relaxation times of the 8 soluble, pure complexes were measured in aqueous solution at 37° C., at both 20 and 60 MHz.

Data set [2] relates to primary rat renal proximal tubule epithelial cells (RPTECs). Nature of the data set: In vitro toxicity, MTT assay. The note with it: for IC50: rat RPTECs, MTT, read-out: Inhibitory concentration IC50. The data set is classed as cell-based. The protocol:
Gadodiamide (Selleckchem, Lot #02) was used as the reference compound. It is one of the 8 Gd(III)-based MRI agents approved for use in Canada (trade name: Omniscan™).
The test articles and reference compound were weighed and dissolved in the incubation medium to give the highest test concentration of 30 mM. The solution was filter sterilized and diluted to the remaining test concentrations of 10 mM, 3.3 mM, 1.1 mM, 0.36 mM, 0.12 mM and 0.04 mM.
Cryopreserved primary rat renal proximal tubule epithelial cells (RPTECs) (ScienCell Research Laboratories, Carlsbad, Calif.) were used for the study. The rat RPTECs were thawed completely at 37° C., and transferred to epithelial cell medium (ScienCell Research Laboratories, Carlsbad, Calif.) followed by plating in poly-L-lysine coated 96-well plates. The RPTECs were allowed to recover and grow in a cell culture incubator (37° C., humidified atmosphere of 5% carbon dioxide and 95% air) for 3 additional days with a medium change every alternate day.
Following 3 days of plating, the RPTECs were washed once with serum free epithelial cell medium (ScienCell Research Laboratories, Carlsbad, Calif.) followed by treatment with the test, reference or control articles for 2, 4, 10 or 24 h. All treatments were performed in triplicate.
Cellular viability and metabolic activity were assessed by using the 3-(4,5-dimethylthiazol-2-yl)-2,5-diphenyl tetrazolium bromide (MTT) uptake assay. A 10× stock of the MTT dye was prepared in phosphate buffered saline (PBS). An aliquot of dye was added 2 hrs before the intended time point to achieve a final 1× concentration, after which incubation (37° C., humidified atmosphere of 5% carbon dioxide and 95% air) continued until the desired time point. For the 2 hr time point, the aliquot of dye was added immediately after the test articles. Following incubation, all media was aspirated from the wells and the plates were allowed to dry. The resulting formazan crystals were dissolved in DMSO using an orbital shaker, and the absorbance at 570 nm was measured using a Victor ^3V multilabel plate reader (reference wavelength=650 nm).
The inhibitory concentration (IC50, the concentration resulting in 50% toxicity) was determined by plotting log concentration vs. relative viability, followed by non-linear regression of the curve using Graph Pad Prism 5.0.
An in vitro toxicity study was performed in order to evaluate the cytotoxic potential of several of the agents in primary rat renal proximal tubule epithelial cells (RPTECs), prior to performing in vivo studies. The Mn^II and Gd^III complexes of L1, L2 and L6 (complexes 1, 2, 5, and 7-9) were evaluated at seven concentrations (30 mM, 10 mM, 3.3 mM, 1.1 mM, 0.36 mM, 0.12 mM and 0.04 mM) after 2, 4, 10 and 24 hours of treatment in rat RPTECs. The MTT assay was used as an indicator of viability. The nephrotoxic potential of the test articles was compared to the toxicity observed in the presence of the approved agent Gadodiamide. The results are summarized in Table 4, where the inhibitory concentration (IC50, the concentration resulting in 50% toxicity) was determined by plotting log concentration vs. relative viability.

SMILES strings stand for the structures. Read-outs that look alike come from different tables or passages of the source.

This note sets out measurements from US10377783B2, “Methods and compounds for enhancing contrast in magnetic resonance imaging (MRI)” (priority 2015, dated 2019).

Consider `CC1=NCCOCCOCCN=C(C)c2cccc1n2.O.O.[Cl-].[Cl-].[Mn+2]` [Compound 2, [MnL2Cl2].2H2O], for which the results for the r1 relaxivity in data set [1] (20 MHz) and in data set [1] (60 MHz) were 3.58 s⁻¹ mM⁻¹ and 2.78 s⁻¹ mM⁻¹, respectively. In addition, the IC50 in data set [2] (2 hr treatment) is 3.88 mM; in data set [2] (4 hr treatment), 2.56 mM; in data set [2] (10 hr treatment) it was 14.7 mM; in data set [2] (24 hr treatment), 0.68 mM. In addition, the “cytotoxicity” value in data set [2] (10 h time point, compared with 4 h) is “exhibited a slight reduction in toxicity”.
